Test [1] has as its system phospho-CHK. As to the kind of experiment: Western blot of phospho-CHK after DNA damaging agents in SW620 and or HT29 cells. Type of test: cell-based. Conditions: titration of DNA damaging agent, 8 hour incubation. As to the method:
Cell were then treated with a titration of DNA damaging agents (SN-38 (CQ International, China), doxorubicin (Sigma-Aldrich, MO) or gemcitabine (CQ International, China)). Cells were then harvested after an 8 hour incubation with DNA damaging agents in Onyx lysis buffer with protease and phosphatase inhibitors (20 mM Tris, 137 mM Na Cl, […], 1% Triton X, 10% glycerol, 1.5 mM MgCl2, 1:100 dilution of Calbiochem Phophatase Inhibitor Cocktail set II, 10 mM β-glycerophosphate, 1 mM DTT, 7 μg/ml PMSF, 20KIU/ml aprotinin, 1 mM Pefabloc, 0.1 mg/ml leupeptin). Protein lysates were then generated, protein concentration determined and equal protein loaded and analyzed by Western blot analysis using a 1:100 dilution of phospho-CHK rabbit monoclonal antibody (Ser 345) (133D3) acquired from Cell Signaling (Beverly, Mass.). […] To further characterize the CHK1 activation, SW620 and HT29 cells were treated with gemcitabine (100 nM) or SN38 (100 nM) and cells harvested at different times (from 30 minutes to 24 hours). […] A panel of tumor cell lines was then examined to determine how broadly in tumor cells CHK was activated and whether p53 status impacted CHK activation. The panel of cell lines were plated and treated for 8 hours with 100 nM of gemcitabine. Cell lysates were harvested and evaluated for phospho-CHK upregulation.
On the technique in general: Immunoblotting shows a protein as a band on a membrane.

Test [2] deals with phospho-CHK. Description: Phospho-CHK immunohistochemistry (IHC) in HeLa or A549 cells, Metamorph quantitation. Type of test: cell-based. Conditions: 100 nM gemcitabine, 5 hours, FIG. 1.
Method: Phospho-CHK regulation was also examined by immunohistochemistry (IHC). […] Cells were fixed with 4% PFA in PBS (8 minutes room temperature), permeabilized with 0.5% Triton-X in PBS, washed with PBS and washed with 0.05% Tween 20 in PBS. Cells were then blocked with 10% Goat serum for 1 hour at room temperature, incubated with 1:50 dilution of phospho-CHK rabbit monoclonal antibody ([MUT]) (133D3) acquired from Cell Signaling (Beverly, Mass.) in 10% goat serum for 90 minutes, washed twice with PBS and once with 05% Tween 20 in PBS. […] Phospho-CHK staining was then quantitated using Metamorph analysis (Universal Imaging Corp, Dowington, Pa.).
Another test concerns phospho-H2AX. As to the kind of experiment: Western blot of phospho-H2AX in SW620 and or A549 cells. It counts as cell-based. Conditions: 5 hour incubation, either compound used alone. As to the method:
Cells were then harvested after a 5 hour incubation directly into SDS sample buffer (NuPAGE #NP007). Samples were then sonicated, passed through a 21 gauge needle, heated to 100° C. for 5 minutes, microcentrifuged and analyzed by Western blot analysis. Protein lysates were then generated, protein concentration determined and equal protein loaded and analyzed by Western blot analysis using a 1:5000 dilution of a mouse monoclonal anti-phospho H2AX […] (Upstate, N.Y.).

A further test deals with phosphorylated CHK1. As to the kind of experiment: Phosphorylated CHK1 staining (H-score) of hair follicles in skin biopsies. Type of test: in vivo, nude mice. Conditions: gemcitabine 30 or 60 mg/kg IV alone or Chk inhibitor 5, 20 or 40 mg/kg IV alone, seven hours.
In test [3] the test system is phospho-CHK. Description: Western blot of phospho-CHK in a panel of tumor cell lines. Conditions: 100 nM, 8 hours. It counts as cell-based.
Method: Cell were then treated with a titration of DNA damaging agents (SN-38 (CQ International, China), doxorubicin (Sigma-Aldrich, MO) or gemcitabine (CQ International, China)). […] Protein lysates were then generated, protein concentration determined and equal protein loaded and analyzed by Western blot analysis using a 1:100 dilution of phospho-CHK rabbit monoclonal antibody ([MUT]) (133D3) acquired from Cell Signaling (Beverly, Mass.). […] A panel of tumor cell lines was then examined to determine how broadly in tumor cells CHK was activated and whether p53 status impacted CHK activation. The panel of cell lines were plated and treated for 8 hours with 100 nM of gemcitabine. Cell lysates were harvested and evaluated for phospho-CHK upregulation.
Test [4] has as its system phospho-CHK. As to the kind of experiment: Western blot of phospho-CHK in SW620 cells, gemcitabine and CHK inhibitor combination. The conditions noted are these: 8 hours, 100 nM gemcitabine alone or 30, 100 or 500 nM CHK inhibitor alone. Type of test: cell-based. The method, then: Cell were then treated with 100 nM gemcitabine or 30 nM, 100 nM or 500 nM CHK inhibitor or a combination of 100 nM gemcitabine and 30 nM, 100 nM or 500 nM for 8 hours. One set of cells were then harvested for Western blot analysis. Media containing compounds were removed from the remaining cells and fresh tissue culture media added back.

The subject of test [5] is phospho-CHK. Description: Western blot of phospho-CHK in H460 (dominant negative p53) xenograft tumors. Type of test: in vivo, nude rats. The conditions noted are these: 20 mg/kg IV. As to the method:
1×10^7 H460 cells expressing dominant negative p53 were injected into the right flank of male nude rats which had been irradiated with 5 Gy radiation 6 days prior to implantation. At day 20 when the tumors reached a size of […], animals were dosed IV with 20 mg/kg gemcitabine in 0.9% saline. Tumors were then harvested at varying time points including 1.5, 2, 2.5, 4, 6, 8 and 24 hours following gemcitabine dosing.

Molecules are shown by their SMILES.

From the text for phosphorylated CHK1: Staining was specific to cell nuclei. […] Sections were then quantitated by H-score analysis.

`COc1cccc2c1C(=O)c1c(O)c3c(c(O)c1C2=O)C[C@@](O)(C(=O)CO)C[C@@H]3O[C@H]1C[C@H](N)[C@H](O)[C@H](C)O1` [doxorubicin]: in the test with phospho-CHK [1], the “phospho-CHK level by Western blot” value was “dose dependent up-regulation”.

With `Nc1ccn([C@@H]2O[C@H](CO)[C@@H](O)C2(F)F)c(=O)n1` [gemcitabine], the “area of phospho-CHK signal relative to nuclear area” value in the test on phospho-CHK [2] is given as “large increase”. Further, the “phospho-H2AX by Western blot, compound alone” value in the test on phospho-H2AX was “no change or a very modest change”. Besides, the “phosphorylated CHK1 staining of hair follicles, single agent” value in the test with phosphorylated CHK1 is reported as “No staining”. Besides, the “phospho-CHK level by Western blot” value with phospho-CHK [1] is on record as “dose dependent up-regulation”. Moreover, the “phospho-CHK level by Western blot” value with phospho-CHK [3] is listed as “upregulated in a panel of tumor cell lines, albeit to different levels”. In addition, in the test with phospho-CHK [4], the “phospho-CHK level by Western blot, single agent” value is on record as “increase in phospho-CHK”. In the test on phospho-CHK [5], the “time of maximum activation of CHK in tumor” value was 8 h and the “time to activation of CHK in tumor” value was at most 2 h. Moreover, the “phospho-CHK in tumor at 24 hours” value in the test with phospho-CHK [5] (24 hours after dosing) is given as “significantly down-regulated”.

For the compound `CCc1c2c(nc3ccc(O)cc13)-c1cc3c(c(=O)n1C2)COC(=O)[C@]3(O)CC` [SN-38], the “phospho-CHK level by Western blot” value with phospho-CHK [1] is “dose dependent up-regulation”.

(Values after patent publication US20080145358A1, “Method for Determining Responsiveness to Chk1 Inhibitors” (ASTRAZENECA AB, priority 2005, published 2008).)
